Test results: USRE32992E, “Peptide process for preparation thereof and use thereof” (priority 1978, dated 1989)

System: reticuloendotherial system
Assay: Blood stream clearance of carbon
Format: in vivo, Mice (DDY male 5-6 W)
Protocol: 1. Carbon suspension. Rotoring drawing ink (170 mg carbon/ml.) was diluted to 1/5 of the original concentration in saline containing 1% gelatin.
2. 0.1% aqueous sodium carbonate solution.
Mice (DDY male 5-6 W) were injected via the tail vein with a dose of 0.01 ml/g body weight of carbon. Blood samples were taken by means of a pointed capillary pippet calibrated to hold a 50 μl and previously washed in heparin. This was plunged into the retrooribital venous sinus at the nasal angle of the eye. The samples were removed at 3 and to 6 min.
The blood was immediately discharged into 3.0 ml. of the sodium carbonate solution. This hemolyszed the blood and allowed the quantitation of carbon. The samples were then read in a spectrophotometer at 660 nm, the log concentration being obtained from a previously determined standard curve. The clearance value K may be determined by plotting log carbon concentration against time according to the following relationship; [formula] in which T1 and T2 represent the time in min when the sample were withdrawn and C1 and C2 represent the concentrations of carbon in the blood at the time T1 and T2, respectively.
The aqueous solution of the test compound as given was administered subcutaneously to mice. Twenty four hours later, blood stream clearance of carbon was measured. K value obtained with treated mice was compared with that of control mice.

Compound	Ktreated/Kcontrol (dose 10 mg/mouse)	Ktreated/Kcontrol (dose 125 mg/mouse)	Ktreated/Kcontrol (dose 400 mg/mouse)
c1ccc([C@H]2CN3CCSC3=N2)cc1 [Levamisol]	death	–	–
Tuftsin	–	1.0	1.4
